Results: US6930088B2, “Conformationally constrained backbone cyclized somatostatin analogs” (Peptor Ltd., priority 1998, dated 2005)
Where two headings read alike, the source gives them in different places. One block for each compound: values may come before it. *1 amine or outer side, *2 acyl side, *3 side chain or, on linkers, in order; H or OH if unused. Where a SMILES comes first, the peptide text is derived from it. Bridges are numbered along the chain shown (N, C = ends). [ ]: non-standard residue; d: D form. Phe(Nα-CH2CH2CO) = O=C([C@H](Cc1ccccc1)N(CCC(=O)[*:3])[*:1])[*:2]; N(2-mercaptoethyl)Gly = O=C(CN(CCS[*:3])[*:1])[*:2]

Key:
[1] = In vitro biostability in renal homogenate (HPLC); details: kidney or brush border membranes
Description: The assay was based on HPLC determination of peptide degradation as a function of time in renal homogenate at 37° C.

[2] = cited from earlier work
SSTR-3 = molecular target: T1, SSTR-3 (Homo sapiens, UniProt P32745); test: Inhibition of 125I-Tyr11-SRIF binding to membrane preparations expressing SSTR-3; details: for IC50: Table 15, read-out: IC50 (nM) for SST-R 3
T1 construct: expressed in transfected cells
T1 sequence (P32745 whole entry): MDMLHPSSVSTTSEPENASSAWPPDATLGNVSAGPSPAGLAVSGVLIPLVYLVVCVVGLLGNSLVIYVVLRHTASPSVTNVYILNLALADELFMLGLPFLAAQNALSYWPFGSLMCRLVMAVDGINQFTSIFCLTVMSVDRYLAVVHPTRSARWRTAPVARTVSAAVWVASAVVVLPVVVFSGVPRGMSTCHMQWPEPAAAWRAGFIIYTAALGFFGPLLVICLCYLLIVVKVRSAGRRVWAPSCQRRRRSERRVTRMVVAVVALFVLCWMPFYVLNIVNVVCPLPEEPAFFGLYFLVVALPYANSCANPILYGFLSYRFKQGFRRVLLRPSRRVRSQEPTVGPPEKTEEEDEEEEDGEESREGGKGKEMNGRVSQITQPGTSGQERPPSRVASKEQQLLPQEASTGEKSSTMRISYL
Description: The somatostatin analogs were tested for their potency in inhibition of the binding of ^125I-Tyr^11-SRIF (based on the method described by Raynor et. al., Molecular Pharmacology, 1993, 43, 838-844) to membrane preparations expressing the transmembranal somatostatin receptors (SSTR-1, 2, 3, 4 or 5). The receptor preparations used for these tests were either from the cloned human receptors selectively and stably expressed in Chinese Hamster Ovary (CHO) cells or from cell lines naturally expressing the SSTRs. […] The binding reactions were filtered, the filters were washed and the bound radioactivity was counted in gamma counter. Non specific binding was defined as the radioactivity remaining bound in the presence of 1 μM unlabeled SRIF-14.
(§1) In order to validate positive signals of the binding tests, and to eliminate non-specific signals, samples of irrelevant peptides, such as GnRH, that were synthesized and handled using the same procedures, were tested in the same assays as negative control samples. These samples had no binding activity in any of the assays. Results are shown below in Tables 5 and 6 and FIG. 1.

SSTR-5 = molecular target: T2, SSTR-5 (Homo sapiens, UniProt P35346); test: Inhibition of 125I-Tyr11-SRIF binding to membrane preparations expressing SSTR-5; details: for IC50: Table 15, read-out: IC50 (nM) for SST-R 5
T2 construct: expressed in transfected cells
T2 sequence (P35346 whole entry): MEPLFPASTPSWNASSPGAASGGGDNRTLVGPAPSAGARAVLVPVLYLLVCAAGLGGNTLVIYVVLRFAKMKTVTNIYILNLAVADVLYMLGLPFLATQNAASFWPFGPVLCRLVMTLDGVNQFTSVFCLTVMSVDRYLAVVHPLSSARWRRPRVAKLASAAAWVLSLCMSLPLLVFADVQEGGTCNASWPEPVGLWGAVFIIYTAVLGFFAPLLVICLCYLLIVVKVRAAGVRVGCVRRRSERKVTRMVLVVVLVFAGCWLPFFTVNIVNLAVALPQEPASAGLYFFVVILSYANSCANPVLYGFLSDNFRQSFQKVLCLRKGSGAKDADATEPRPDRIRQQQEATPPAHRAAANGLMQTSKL
Description: (§2) The receptor preparations used for these tests were either from the cloned human receptors selectively and stably expressed in Chinese Hamster Ovary (CHO) cells or from cell lines naturally expressing the SSTRs. […] The binding reactions were filtered, the filters were washed and the bound radioactivity was counted in gamma counter. Non specific binding was defined as the radioactivity remaining bound in the presence of 1 μM unlabeled SRIF-14.
as §1

SSTR-2 = molecular target: T3, SSTR-2 (Homo sapiens, UniProt P30874); test: Inhibition of 125I-Tyr11-SRIF binding to membrane preparations expressing SSTR-2
T3 construct: expressed in transfected cells
T3 sequence (P30874 whole entry): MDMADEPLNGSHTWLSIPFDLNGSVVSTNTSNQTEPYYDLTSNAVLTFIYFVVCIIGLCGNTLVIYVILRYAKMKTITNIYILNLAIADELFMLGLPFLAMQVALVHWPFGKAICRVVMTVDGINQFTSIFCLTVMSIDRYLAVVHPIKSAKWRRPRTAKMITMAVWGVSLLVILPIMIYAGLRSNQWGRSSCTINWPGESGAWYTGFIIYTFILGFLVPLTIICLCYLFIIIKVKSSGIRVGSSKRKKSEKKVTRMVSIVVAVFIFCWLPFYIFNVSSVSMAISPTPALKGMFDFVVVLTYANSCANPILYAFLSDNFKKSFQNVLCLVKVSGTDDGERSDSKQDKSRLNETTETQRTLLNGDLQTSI
Description: as §2, §1

[3] = IV, from Sandostatin overview, Sandoz 1992
[4] = SC, from Sandostatin overview, Sandoz 1992
[5] = Table 15, read-out: IC50 (nM) for SST-R 2

Compound: C[C@@H](O)[C@@H]1NC(=O)[C@H](CCCCN)NC(=O)[C@@H](Cc2c[nH]c3ccccc23)NC(=O)[C@H](Cc2ccccc2)NC(=O)[C@@H](NC(=O)[C@H](N)Cc2ccccc2)CSSC[C@@H](C(=O)N[C@H](CO)[C@@H](C)O)NC1=O [Octreotide]
remaining at 1 h [1]: 100% | remaining at 3 h [1]: 100% | remaining at 24 h [1]: 100% | Clearance [2, 3]: 17.6 mL/min/kg | T½β (min) circulating half life [2, 3]: 49 min | Vss (ml/kg) Volume of distribution [2, 3]: 602 mL/kg | circulation half-life ([2]; Octreotide): 40 min | Clearance [2, 4]: 17.1 mL/min/kg | F (%) Bioavailability [2, 4]: 103% | T½β (min) circulating half life [2, 4]: 40 min

inhibition at 1 µM (SSTR-3; SST-R3, 10^−6M, read-out: Percent inhibition of SRIF-14 binding): 87% | inhibition at 0.1 µM (SSTR-3; SST-R3, 10^−7M, read-out: Percent inhibition of SRIF-14 binding): 40% | inhibition at 0.01 µM (SSTR-3; SST-R3, 10^−8M, read-out: Percent inhibition of SRIF-14 binding): 12% | inhibition at 1 µM (SSTR-5; SST-R5, 10^−6M, read-out: Percent inhibition of SRIF-14 binding): 60% | inhibition at 0.1 µM (SSTR-5; SST-R5, 10^−7M, read-out: Percent inhibition of SRIF-14 binding): 10% | inhibition at 0.01 µM (SSTR-5; SST-R5, 10^−8M, read-out: Percent inhibition of SRIF-14 binding): 18% | remaining at 1 h [1]: 100% | remaining at 3 h [1]: 100% | remaining at 24 h [1]: 100%
Compound: NCCCC[C@H]1NC(=O)[C@@H](Cc2c[nH]c3ccccc23)NC(=O)[C@H](Cc2ccccc2)NC(=O)[C@H](Cc2ccccc2)NC(=O)[C@H](Cc2ccccc2)NC(=O)CCN([C@@H](Cc2ccccc2)C(N)=O)C1=O [PTR 3171, Phe*-Phe-Phe-(D)Trp-(D)Lys-Phe(C2)-X] (FFF[dW][dK][Phe(Nα-CH2CH2CO)]-NH2; lactam N-6)

IC50 (SSTR-2; [5]): 4 nM | IC50 (SSTR-5): 1 nM
Compound: C[C@@H](O)[C@@H]1NC(=O)[C@H](CCCCN)NC(=O)[C@@H](Cc2c[nH]c3ccccc23)NC(=O)[C@H](Cc2c[nH]c3ccccc23)NC(=O)[C@H](Cc2ccccc2)NC(=O)[C@@H](N)CSSCCN(CC(N)=O)C(=O)[C@H](Cc2ccccc2)NC1=O [PTR 3197, Cys*-Phe-Trp-(D)Trp-Lys-Thr-Phe-Gly(S2)*-NH2] (H-CFW[dW]KTF[N(2-mercaptoethyl)Gly]-NH2; disulfide 1-8; N-terminus assumed)

IC50 (SSTR-2; [5]): 1 to 12 nM
Compound: C[C@@H](O)[C@@H]1NC(=O)[C@H](CCCCN)NC(=O)[C@@H](Cc2c[nH]c3ccccc23)NC(=O)[C@H](Cc2c[nH]c3ccccc23)NC(=O)[C@H](Cc2ccccc2)NC(=O)[C@@H](NC(=O)[C@H](N)Cc2ccccc2)CSSCCN(CC(N)=O)C(=O)[C@H](Cc2ccccc2)NC1=O [PTR 3207, (D)Phe-Cys*-Phe-Trp-(D)Trp-Lys-Thr-Phe-Gly(S2)*-NH2]

IC50 (SSTR-2; [5]): 37 nM | IC50 (SSTR-3): 12 to 37 nM
Compound: C[C@@H](O)[C@@H]1NC(=O)[C@H](CCCCN)NC(=O)[C@@H](Cc2c[nH]c3ccccc23)NC(=O)[C@H](Cc2c[nH]c3ccccc23)NC(=O)[C@H](Cc2ccccc2)NC(=O)CSSCCN(CC(N)=O)C(=O)[C@H](Cc2ccccc2)NC1=O [PTR 3211, Mercapto-acetic-acid(*)-Phe-Trp-(D)Trp-Lys-Thr-Phe-Gly(S2)*-NH2]

IC50 (SSTR-2; [5]): 4 nM | IC50 (SSTR-5): 12 nM
Compound: C[C@@H](O)[C@@H]1NC(=O)[C@H](CCCCN)NC(=O)[C@@H](Cc2c[nH]c3ccccc23)NC(=O)[C@H](Cc2c[nH]c3ccccc23)NC(=O)[C@H](Cc2ccccc2)NC(=O)CNCCSSCCN(CC(N)=O)C(=O)[C@H](Cc2ccccc2)NC1=O [PTR 3213, Gly(S2)*-Phe-Trp-(D)Trp-Lys-Thr-Phe-Gly(S2)*-NH2]

IC50 (SSTR-2; [5]): 37 nM | IC50 (SSTR-3): 100 nM
Compound: C[C@@H](O)[C@@H]1NC(=O)[C@H](CCCCN)NC(=O)[C@@H](Cc2c[nH]c3ccccc23)NC(=O)[C@H](Cc2c[nH]c3ccccc23)NC(=O)[C@H](Cc2ccccc2)NC(=O)CCSSCCN(CC(N)=O)C(=O)[C@H](Cc2ccccc2)NC1=O [PTR 3217, 3-Thiopropanoic-acid*-Phe-Trp-(D)Trp-Lys-Thr-Phe-Gly(S2)*-NH2]

Compound: C[C@@H](O)[C@@H]1NC(=O)[C@H](CCCCN)NC(=O)[C@@H](Cc2c[nH]c3ccccc23)NC(=O)[C@H](Cc2c[nH]c3ccccc23)NC(=O)[C@H](Cc2ccccc2)NC(=O)CN(C(=O)[C@H](N)Cc2ccccc2)CCSSCCN(CC(N)=O)C(=O)[C@H](Cc2ccccc2)NC1=O [PTR 3219, (D)Phe-Gly(S2)*-Phe-Trp-(D)Trp-Lys-Thr-Phe-Gly(S2)*-NH2]
IC50 (SSTR-2): 4 nM
